The results in this text go back to patent US12606572B2, “Substituted heterocycles and uses thereof” (Kumquat Biosciences Inc., priority 2023, dated 2026).

Structures are written as SMILES.

Assay [1] has as its target T1, KRAS G12S (Homo sapiens, UniProt P01116, G12S).
T1 construct: made in house; host or cells: E. coli BL21 (DE3)
Description: HTRF assay, interaction of GST-tagged K-Ras with His-tagged hSOS1 (KRAS G12S). Format: biochemical. To be noted: <500 nM, read-out: Inhibition of KRAS G12S (IC50). The text has this:
(§1) This assay can be also used to assess a selective inhibition or reduction of signaling output of a mutant Ras protein relative to a wildtype, or relative to a different mutant Ras protein. For example, the equilibrium interaction of wildtype KRAS or K-Ras mutant (e.g., wildtype or a mutant thereof) with SOS1 (e.g., hSOS1) can be assessed as a proxy or an indication for the ability of a subject compound to bind and inhibit Ras protein. The HTRF assay detects from (i) a fluorescence resonance energy transfer (FRET) donor (e.g., antiGST-Europium) that is bound to GST-tagged K-Ras mutant to (ii) a FRET acceptor (e.g., anti-6His-XL665) bound to a His-tagged hSOS1.
(§2) The assay buffer can contain ˜5 mM HEPES pH 7.4, ˜150 mM NaCl, ˜1 mM DTT, 0.05% BSA and 0.0025% (v/v) Igepal. A Ras working solution is prepared in an assay buffer containing typically a suitable amount of the protein construct (e.g., GST-tagged K-Ras mutant) and the FRET donor (e.g., antiGST-Eu(K) from Cisbio, France). A SOS1 working solution is prepared in an assay buffer containing suitable amount of the protein construct (e.g., His-hSOS1) and the FRET acceptor (e.g., anti-6His-XL665 from Cisbio, France). A suitable amount of the protein construct will depend on the range of activity or range of IC50 values being detected or under investigation. For detecting an IC50 within a range of 500 nM, the protein constructs of the same range of molarity can be utilized.
(§3) A fixed volume of DMSO with or without test compound is transferred into a 384-well plate. Ras working solution is added to all wells of the test plate. SOS1 working solution is added to all wells except for those that are subsequently filled with inhibitor control solution. Upon incubation for about 10 minutes or longer, the fluorescence is measured with a M1000Pro plate reader (Tecan) using HTRF detection (excitation 337 nm, emission 1: 620 nm, emission 2: 665 nm). Compounds are tested in duplicate at different concentrations (for example, 10 μM, 2.5 μM, 0.63 μM, 0.16 μM, 0.04 μM, 0.01 μM test compound). The ratiometric data (i.e., emission 2 divided by emission 1) is used to calculate IC50 values against Ras using GraphPad Prism (GraphPad software). Signaling output measured in terms of IC50 values can be obtained and a ratio of IC50 against one mutant relative to another mutant can be calculated. For instance, a selective reduction of K-Ras G12S signaling output can be evidenced by a ratio greater than one. In particular, a selective reduction of K-Ras G12S signaling relative to K-Ras WT signaling is evidenced if the ratio of IC50 (against K-Ras WT) to IC50 (against K-Ras G12S) is greater than 1.

The target in assay [2] is T2, KRAS WT (Homo sapiens, UniProt P01116).
T2 construct: made in house; host or cells: E. coli BL21 (DE3)
The experiment in a line: HTRF assay, interaction of GST-tagged K-Ras with His-tagged hSOS1 (KRAS wildtype). It is filed as biochemical. To be noted: <500 nM, read-out: Inhibition of KRAS WT (IC50).
Description: as §1, §2, §3

T1 sequence (P01116 1-188 isoform P01116-2 G12S): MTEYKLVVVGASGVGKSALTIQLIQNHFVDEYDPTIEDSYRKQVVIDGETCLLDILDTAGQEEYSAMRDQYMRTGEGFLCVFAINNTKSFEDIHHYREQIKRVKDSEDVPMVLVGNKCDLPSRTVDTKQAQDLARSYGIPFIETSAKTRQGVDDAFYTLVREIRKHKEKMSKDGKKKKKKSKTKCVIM
T2 sequence (P01116 1-188 isoform P01116-2): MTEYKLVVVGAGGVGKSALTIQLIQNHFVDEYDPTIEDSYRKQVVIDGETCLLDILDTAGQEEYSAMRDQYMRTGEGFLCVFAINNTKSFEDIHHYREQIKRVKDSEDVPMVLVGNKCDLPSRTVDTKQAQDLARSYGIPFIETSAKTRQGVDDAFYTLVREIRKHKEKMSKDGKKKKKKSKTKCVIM

Turning to `C[C@@H]1[C@H](N2C[C@H](C)Oc3c(Cl)c(-c4ccc(F)c5sc(N)c(C#N)c45)c(F)c4nc(OC[C@@]56CCCN5C[C@H](F)C6)nc2c34)CCN1C(=O)n1cnc(Cl)n1` (atropisomer, axis not shown; (aS)) [Compound 407, 2-amino-4-((6S,9R)-8-chloro-4-((2R,3R)-1-(3-chloro-1H-1,2,4-triazole-1-carbonyl)-2-methylpyrrolidin-3-yl)-10-fluoro-2-(((2R,7aS)-2-fluorotetrahydro-1H-pyrrolizin-7a (5H)-yl)methoxy)-6-methyl-5,6-dihydro-4H-[1,4]oxazepino[5,6,7-de]quinazolin-9-yl)-7-fluorobenzo[b]thiophene-3-carbonitrile], the IC50 in assay [1] and in assay [2] was less than 500 nM each time. As to `C[C@H]1COc2c(Cl)c(-c3ccc(F)c4sc(N)c(C#N)c34)c(F)c3nc(OC[C@@]45CCCN4C[C@H](F)C5)nc(c23)N1C[C@@H]1CN(C(=O)n2ccnc2)[C@@H]1C1(C)CC1` (single isomer, unassigned) [Compound 421], the IC50 in assay [1] was less than 500 nM. Regarding `CC#CC(=O)N1CC(CN2CCOc3c(Cl)c(-c4ccc(F)c5sc(N)c(C#N)c45)c(F)c4nc(OC[C@@]56CCCN5C[C@H](F)C6)nc2c34)C1` [Compound 456, 2-amino-4-(4-((1-(but-2-ynoyl)azetidin-3-yl)methyl)-8-chloro-10-fluoro-2-(((2R,7aS)-2-fluorotetrahydro-1H-pyrrolizin-7a (5H)-yl)methoxy)-5,6-dihydro-4H-[1,4]oxazepino[5,6,7-de]quinazolin-9-yl)-7-fluorobenzo[b]thiophene-3-carbonitrile], the IC50 in assay [1] and in assay [2] was less than 500 nM each time. `Cc1cn(C(=O)N2CC[C@@H](N3CCCc4nc(-c5ccc(F)c6sc(N)c(C#N)c56)c(F)c5nc(OC[C@@]67CCCN6C[C@H](F)C7)nc3c45)[C@H]2C)c(C)n1` [Compound 409, 2-amino-4-(10-((2R,3R)-1-(2,4-dimethyl-1H-imidazole-1-carbonyl)-2-methylpyrrolidin-3-yl)-4-fluoro-2-(((2R,7aS)-2-fluorotetrahydro-1H-pyrrolizin-7a (5H)-yl)methoxy)-7,8,9,10-tetrahydro-1,3,6,10-tetraazacyclohepta[de]naphthalen-5-yl)-7-fluorobenzo[b]thiophene-3-carbonitrile]: the IC50 in assay [1] and in assay [2] was less than 500 nM throughout. For `CC(C)[C@@H]1[C@H](CN2CCOc3c(Cl)c(-c4ccc(F)c5sc(N)c(C#N)c45)c(F)c4nc(OC[C@@]56CCCN5C[C@H](F)C6)nc2c34)CN1C(=O)n1cnc(F)n1` [Compound 471, 2-amino-4-(8-chloro-10-fluoro-4-(((2R,3R)-1-(3-fluoro-1H-1,2,4-triazole-1-carbonyl)-2-isopropylazetidin-3-yl)methyl)-2-(((2R,7aS)-2-fluorotetrahydro-1H-pyrrolizin-7a (5H)-yl)methoxy)-5,6-dihydro-4H-[1,4]oxazepino[5,6,7-de]quinazolin-9-yl)-7-fluorobenzo[b]thiophene-3-carbonitrile], the IC50 in assay [1] and in assay [2] was less than 500 nM throughout. On to `N#Cc1cn(C(=O)N2CC(CN3CCOc4c(Cl)c(-c5ccc(F)c6sc(N)c(C#N)c56)c(F)c5nc(OC[C@@]67CCCN6C[C@H](F)C7)nc3c45)C2)cn1` [Compound 436, 1-(3-((9-(2-amino-3-cyano-7-fluorobenzo[b]thiophen-4-yl)-8-chloro-10-fluoro-2-(((2R,7aS)-2-fluorotetrahydro-1H-pyrrolizin-7a(5H)-yl)methoxy)-5,6-dihydro-4H-[1,4]oxazepino [5,6,7-de]quinazolin-4-yl)methyl)azetidine-1-carbonyl)-1H-imidazole-4-carbonitrile], for which, in assay [1], the IC50 was less than 500 nM.

For `CC(CN(C)C(=O)n1ccnc1)N1c2nc(OC[C@@]34CCCN3C[C@H](F)C4)nc3c(F)c(-c4ccc(F)c5sc(N)c(C#N)c45)c(Cl)c(c23)OC[C@@H]1[C@H](C)O` (stereo partly drawn) [Compound 451, N-(2-((5R)-9-(2-amino-3-cyano-7-fluorobenzo[b]thiophen-4-yl)-8-chloro-10-fluoro-2-(((2R,7aS)-2-fluorotetrahydro-1H-pyrrolizin-7a(5H)-yl)methoxy)-5-((S)-1-hydroxyethyl)-5,6-dihydro-4H-[1,4]oxazepino [5,6,7-de]quinazolin-4-yl)propyl)-N-methyl-1H-imidazole-1-carboxamide], the IC50 in assay [1] is less than 500 nM.

`CN1[C@H](C2CC2)[C@@H]1C(=O)N1CC(CN2CCOc3c(Cl)c(-c4ccc(F)c5sc(N)c(C#N)c45)c(F)c4nc(OC[C@@]56CCCN5C[C@H](F)C6)nc2c34)C1` (stereo partly drawn) [Compound 440, 2-amino-4-(8-chloro-4-((1-((2R,3R)-3-cyclopropyl-1-methylaziridine-2-carbonyl)azetidin-3-yl)methyl)-10-fluoro-2-(((2R,7aS)-2-fluorotetrahydro-1H-pyrrolizin-7a (5H)-yl)methoxy)-5,6-dihydro-4H-[1,4]oxazepino[5,6,7-de]quinazolin-9-yl)-7-fluorobenzo[b]thiophene-3-carbonitrile]: the IC50 in assay [1] is less than 500 nM. On the same count and under the same terms, the same measure for `CC1([C@@H]2[C@H](CN3CCOc4c(Cl)c(-c5ccc(F)c6sc(N)c(C#N)c56)c(F)c5nc(OC[C@@]67CCCN6C[C@H](F)C7)nc3c45)CN2C(=O)n2ccnc2)CC1` [Compound 486, 4-(4-(((2S,3R)-1-(1H-imidazole-1-carbonyl)-2-(1-methylcyclopropyl)azetidin-3-yl)methyl)-8-chloro-10-fluoro-2-(((2R,7aS)-2-fluorotetrahydro-1H-pyrrolizin-7a(5H)-yl)methoxy)-5,6-dihydro-4H-[1,4]oxazepino [5,6,7-de]quinazolin-9-yl)-2-amino-7-fluorobenzo[b] thiophene-3-carbonitrile]: less than 500 nM.

For `CC1([C@@H]2[C@H](CN3CCOc4c(Cl)c(-c5ccc(F)c6sc(N)c(C#N)c56)c(F)c5nc(OC[C@@]67CCCN6C[C@H](F)C7)nc3c45)CN2C(=O)n2ccnc2)CC1` [Compound 485, 4-(4-(((2S,3R)-1-(1H-imidazole-1-carbonyl)-2-(1-methylcyclopropyl)azetidin-3-yl)methyl)-8-chloro-10-fluoro-2-(((2R,7aS)-2-fluorotetrahydro-1H-pyrrolizin-7a(5H)-yl)methoxy)-5,6-dihydro-4H-[1,4]oxazepino [5,6,7-de]quinazolin-9-yl)-2-amino-7-fluorobenzo[b] thiophene-3-carbonitrile], in assay [2], the concentration for half-maximal inhibition (IC50) was less than 500 nM. In the case of `C[C@H](O)[C@H]1COc2c(Cl)c(-c3ccc(F)c4sc(N)c(C#N)c34)c(F)c3nc(OC[C@@]45CCCN4C[C@H](F)C5)nc(c23)N1C1CC(CN(C)C(=O)n2ccnc2)C1` (stereo partly drawn) [Compound 401, N-((3-((5R)-9-(2-amino-3-cyano-7-fluorobenzo[b]thiophen-4-yl)-8-chloro-10-fluoro-2-(((2R,7aS)-2-fluorotetrahydro-1H-pyrrolizin-7a(5H)-yl)methoxy)-5-((S)-1-hydroxyethyl)-5,6-dihydro-4H-[1,4]oxazepino[5,6,7-de]quinazolin-4-yl)cyclobutyl)methyl)-N-methyl-1H-imidazole-1-carboxamide], the IC50 in assay [1] was less than 500 nM.
